Measurements taken from patent US6410555B1, “Tetrahydronaphthyridinyl-carboxamides having anti-convulsant activity” (SmithKline Beecham p.l.c., priority 1998, dated 2002).

System: maximal (tonic hindlimb extension) electroshock seizures in male rats
Assay: Maximal electroshock seizure (MEST) threshold test, rat model
Type: in vivo
Conditions: 2 mg/kg p.o. at 2 h
Experimental: The maximal electroshock seizure (MEST) threshold test in rodents is particularly sensitive for detecting potential anti convulsant properties ^1. In this model anticonvulsant agents elevate the threshold to electrically-induced seizures whilst proconvulsants lower the seizure threshold. […] The threshold for maximal (tonic hindlimb extension) electroshock seizures in male rats (Sprague Dawley, 80-150 g 6 weeks old) was determined by a Hugo Sachs Electronik stimulator which delivered a constant current (0.3 sec duration; from 1-30 mA in steps of […]). The procedure is similar to that outlined above for mouse and full details are as published by Upton et al,.^4 The percentage increase or decrease in CC50 for each group compared to the control is calculated. […]

With `COc1ccc(C(=O)Nc2cnc3c(c2)CN(C)CC3(C)C)cc1C(F)(F)F.Cl` [Example 3, N-(5,6,7,8-Tetrahydro-6,8,8-trimethyl[1,6]naphthyridin-3-yl)-4-methoxy-3-trifluoromethylbenzamide Hydrochloride] the “percentage increase in CC50 compared to the control” value was 314%.

With `CCOc1ccc(C(=O)Nc2cnc3c(c2)CN(C)CC3(C)C)cc1Br.Cl` [Example 5, N-(5,6,7,8-Tetrahydro-6,8,8-trimethyl[1,6]naphthyridin-3-yl)-3-bromo-4-ethoxybenzamide Hydrochloride] the “percentage increase in CC50 compared to the control” value was 350%.
